Half-life data for 91 compounds are collected here from PubChem BioAssay AID1508591.

SMILES strings stand for the structures.

The conditions of the data set: rat; liver microsomes; pH 7.4; 15.0 min; 1.0 µM. For orientation: Microsomes from liver hold many membrane-bound enzymes, among them those of drug oxidation.

In the case of `O=[N+]([O-])c1ccc(-c2nc(Nc3ccc(F)c(F)c3)c3ccccc3n2)cc1`, the half-life (in general, the time in which the quantity being followed falls by half) is over 30 min.

Take `Cc1cccc(-c2noc([C@@H]3Cc4nc[nH]c4CN3)n2)c1`: the half-life was over 30 min. With `O=C(NCCc1ccc(OCC(F)(F)F)c(OCC(F)(F)F)c1)c1cc2sccc2n1Cc1ccccc1`, the half-life was determined as 1.9 min. To `CCN(CC)CCNC(=O)C1CCN(c2nn3cc(-c4ccc(F)cc4)nc3s2)CC1` belongs over 30 min; to `Clc1ccccc1-c1nccc(-n2ccnc2)n1`, over 30 min. Then `CS(=O)(=O)c1cccc(-c2csc(N3CCC(C(N)=O)CC3)n2)c1`, with over 30 min; and `COc1cc(-c2ccnc3c2c(C)nn3-c2ccc(C(F)(F)F)cc2)ccc1O`, with over 30 min. To `Fc1cc(Nc2nc(-c3ccncc3)nc3ccccc23)ccc1-n1cncn1` belongs 13 min; to `O=C(Nc1nc(-c2ccccc2)cs1)c1ccncc1NS(=O)(=O)c1ccc(F)cc1Cl`, 19 min; to `COc1ccc(-c2cc(-c3ccccc3)nc(SCC(=O)Nc3ccccc3C)c2C#N)cc1`, 2.47 min. Compound `CCCc1ccc(-c2csc(NC(=O)c3ccncc3NS(=O)(=O)c3ccc(C)cc3)n2)cc1` gave a half-life of 3.3 min. Then `O=S(=O)(Nc1cccc(C(F)(F)F)c1)c1ccc(NS(=O)(=O)c2ccc3c(c2)OCCO3)cc1`, with 20 min.

As to `CCOC(=O)c1[nH]c(C)c(CCC(=O)N2CCN(c3cc(Cl)ccc3C)CC2)c1C`, the half-life came to 1.8 min. Then `COc1ccc(-c2ccc3ncc4c(c3c2)n(-c2ccc(N3CCNCC3)c(C(F)(F)F)c2)c(=O)n4C)cn1`, with over 30 min; and `Nc1nc(Nc2ccc(S(N)(=O)=O)cc2)n(C(=S)Nc2c(F)cccc2F)n1`, with over 30 min.

Turning to `Cc1cc(C)nc(NC(=S)N2CCN(c3cc(C(F)(F)F)nc4ccc(C(F)(F)F)cc34)CC2)c1`, the half-life is over 30 min.

`O=C(NCc1ccco1)c1nc2nc(-c3cccs3)cc(C(F)(F)F)n2n1` had a half-life of over 30 min.

Compound `CCOC(=O)c1ccnc2cc(C(OCCN3CCCCC3)c3ccccc3Cl)sc12` (stereo unspecified) registered a half-life of 2.34 min. Then `FC(F)(F)c1cccc(N2CCN(C(=S)Nc3cc4ccccc4cn3)CC2)c1`, with over 30 min. In the case of `O=C1c2ccccc2C2=Nc3ccccc3SC(c3ccccc3F)C12` (stereo unspecified), the half-life was determined as 3.11 min. Then `COc1ccnc(NC(=S)N2CCN(c3cccc(C(F)(F)F)c3)CC2)c1`, with over 30 min; and `CCOc1ccc(CCNC(=O)c2cc3c(s2)CCC3)cc1OCC`, with 1.6 min; and `O=C(C1CCN(c2nc(-c3ccc(Br)cc3)cs2)CC1)N1CCNCC1`, with over 30 min.

`COc1cc(Nc2nc(-c3ccncc3)nc3ccccc23)ccc1NS(C)(=O)=O` showed a half-life of 22 min. To `Fc1ccc(Nc2nccc(-c3ccncc3)n2)cc1F` belongs 16 min; to `O=[N+]([O-])c1ccc(/C=N/n2c(CO)nc3ccccc32)s1`, 21 min.

In turn, `C[C@@]1(c2ncncc2F)NC(=O)c2cc(-c3cn[nH]c3)ccc21` gave a half-life of over 30 min. Then `Cc1cc(C)nc(NS(=O)(=O)c2ccc(NC(=S)NC(=O)COc3ccc(Br)cc3Cl)cc2)n1`, with over 30 min; and `Cc1cc(C)c(CNC(=O)c2nc(-c3ccc(F)cc3)cc3c2ccn3C(C)C)c(=O)[nH]1`, with 7.89 min. Then `O=C(NC1CCCc2c1cnn2-c1ccc(F)cc1F)c1ccc(C2(C(F)(F)F)N=N2)cc1` (stereo unspecified), with over 30 min. With `Nc1scc2c(C(=O)O)nn(-c3ccccc3)c(=O)c12`, the half-life is over 30 min.

Take `O=C(Oc1ccc[nH]c1=O)c1cc([N+](=O)[O-])cc([N+](=O)[O-])c1`: the half-life came out at 1.46 min.

`Cn1c(=O)c2c(-c3ccc(Cl)cc3)n(CCc3ccccc3)cc2n(C)c1=O` returned a half-life of 1.11 min.

With `C/C(=N\NC(N)=S)C1=CCC2C3CC[C@H]4CC(O)CC[C@]4(C)C3CC[C@]12C` (stereo partly specified), the half-life is over 30 min.

For `CN1C[C@@H]2C[C@H]1CN2c1cc2c(cc1F)c(=O)c(C(=O)O)cn2C1CC1`, the half-life was over 30 min.

Consider `Clc1ccc(-c2nc(-c3ccc(Br)o3)no2)c(Cl)c1`, for which the half-life was found to be 13 min. To `CCOc1ccccc1C(=O)Nc1ccccc1C(=O)Nc1cccc(C(F)(F)F)c1` belongs 22.8 min; to `O=C(COC(=O)CCC(=O)c1cccs1)NCc1ccco1`, 1 min; to `Cc1cc(NC(=S)N2CCN(c3cccc(C(F)(F)F)c3)CC2)nc2ccccc12`, 26 min.

`O=C1CCCC2=C1C1(CCS(=O)(=O)C1)N=C(Nc1nc3ccccc3o1)N2` (stereo unspecified): the half-life was 17 min. Then `NC(=O)C1CCN(c2nc(-c3ccccc3Br)cs2)CC1`, with 2.86 min; and `COc1ccc2[nH]c(S(=O)Cc3ncc(C)c(OC)c3C)nc2n1` (stereo unspecified), with 19.2 min. To `CCc1cccc(CC)c1-n1c(C=C(C)C)c(C(=O)N2CCNCC2)cc(-c2nc(-c3ccc(C(F)(F)F)cc3)cs2)c1=O` belongs over 30 min; to `Cc1ccc(C(=O)N2CCc3cc(-c4nc(NC(=O)Cc5ccc6c(c5)OCO6)sc4C)ccc32)cc1`, 6 min. Then `CC(=O)c1c(C)[nH]c(C(=O)Nc2ccc(Cl)cc2)c1C`, with over 30 min; and `OC1(c2ccc(Cl)cc2)CCN(Cc2c[nH]c3ccccc23)CC1`, with 3.89 min. Regarding `Cn1nnnc1Sc1ncnc2scc(-c3cc4ccccc4o3)c12`, the half-life was found to be 1.05 min. Compound `O=C(NCCc1ccccc1)C1CCN(c2nc(-c3ccc(Br)cc3)cs2)CC1` came in with a half-life of 1.71 min. Then `Cn1nnnc1Sc1ncnc2scc(-c3ccccc3F)c12`, with 5.28 min; and `Cc1ccc(S(=O)(=O)Nc2cnccc2C(=O)Nc2ccccc2)cc1`, with 2.6 min. To `COc1ccc(-c2csc(N3CCC(C(N)=O)CC3)n2)cc1OC` belongs over 30 min; to `COc1ccc2c(c1)CCc1c-2n[nH]c1C(=O)N1CCc2c(nc3cc(-c4ccccc4)[nH]n3c2=O)C1`, 27.3 min; to `N#Cc1ccccc1CSc1nc2ncc(Br)cc2[nH]1`, 6.6 min. Then `CCN1C(=O)c2ccccc2S(=O)c2ccc(C(=O)NCc3ccc(OC)cc3)cc21` (stereo unspecified), with 7.8 min; and `COc1ccc(CNC(=O)c2cnc3ccccc3n2)cc1`, with 9.3 min. Regarding `CCc1ccccc1C(=O)N1CCc2cc(-c3nc(NC(=O)Cc4ccc5c(c4)OCO5)sc3C)ccc21`, the half-life worked out at 7.2 min.

`Cc1ccc(NS(=O)(=O)c2cc3c(cc2N[C@H](C)CO)NC(=O)CC3)cc1C`: the half-life is 1.71 min.

`COc1cccc(CNc2ccc(S(=O)(=O)Nc3ccc(-c4ccccc4)cc3)cc2)c1O` came in with a half-life of 2.7 min. Then `Cc1sc2c(c1C)C(c1ccc(Cl)cc1)=N[C@@H](CC(=O)OC(C)(C)C)c1nnc(C)n1-2`, with 6.4 min. Compound `O=C([C@H](Cc1ccc(O[S+](=O)([O-])c2cccc3cnccc23)cc1)N[S+](=O)([O-])c1cccc2cnccc12)N1CCN(Cc2ccccc2)CC1` displayed a half-life of 16 min. To `COc1cc2ncnc(Oc3cccc(NC(=O)Nc4cc(C(C)(C)C(F)(F)F)on4)c3)c2cc1OC` belongs over 30 min; to `O=S(=O)(Nc1ccc2ccccc2c1)c1ccc(NCc2ccc(Br)cc2O)cc1`, 15 min. Then `CCN1C(=O)c2ccccc2S(=O)c2ccc(NC(=O)Cc3ccc(OC)cc3)cc21` (stereo unspecified), with 6.1 min.

`Cn1c(C(=O)NCCc2ccccn2)nc2nc(-c3ccccc3)c(Cl)cc21` displayed a half-life of 7.82 min. To `Cc1ccccc1OCC(O)CO` (stereo unspecified) belongs over 30 min; to `Cc1csc2nc(-c3cccc(NC(=O)c4cccc(F)c4)c3)cn12`, 3.67 min; to `CCCCOc1ccc(CC(=O)NO)cc1`, over 30 min. Then `FC(F)(F)c1ccc(N2CCN(C(=S)Nc3ccccn3)CC2)cc1`, with over 30 min; and `Cc1ccccc1C(=O)N1CCC(C(=O)N2CCC(N3Cc4ccccc4C3=O)CC2)CC1`, with 11.8 min.

With `O=c1[nH]c(N2CCOCC2)nc2c1CCN(Cc1cc(Cl)ccc1F)CC2`, the half-life is over 30 min. To `CCOc1ccc(CCNC(=O)c2cc3sccc3n2C(C)C)cc1OCC` belongs 1.7 min. To `O=C(Nc1ncc(-c2ccccc2)s1)c1ccc(-c2cccc([N+](=O)[O-])c2)o1` belongs over 30 min. Then `Cc1ccc(NS(=O)(=O)c2c(C)[nH]c(C)c2C(=O)N2CCCC2)cc1Cl`, with 1.03 min. On to `Cc1ccnc(C)c1C(=O)Nc1cccc([S+](=O)([O-])N(C)C)c1`, for which the half-life is over 30 min.

`NCC(=O)Nc1cccc(-c2nn3c(=O)cc(N4CCNCC4)nc3s2)c1` returned a half-life of over 30 min. Then `N#Cc1ccc(N2N=C3c4ccc(C(=O)O)cc4CC[C@@H]3[C@@H]2C2CCCC2)cc1Cl`, with over 30 min. Then `CCn1c(C)c(C(C)=O)c(C)c1C(=O)Nc1cccc([S+](=O)([O-])N(C)C)c1`, with 6.5 min. To `CC1(COc2ccc3c(c2)ncn3-c2ccc3cccc(N4CCC(N)CC4)c3n2)COC1` belongs over 30 min. Consider `CN1C(=O)c2ccccc2[S@](=O)c2ccc(C(=O)NCCN3CCCC3)cc21`, for which the half-life is over 30 min.

Consider `COc1ccc(C2Nc3ccccc3C(=O)N2Cc2ccco2)cc1COc1c(C)cc(NC(C)=O)cc1C` (stereo unspecified), for which the half-life was 1.6 min.

`COc1ccc(Nc2ncnc3c2cnn3-c2ccc(C)cc2)cc1Cl` registered a half-life of over 30 min. To `O=C1Nc2ccccc2/C1=C/c1cccc(C(=O)O)c1` belongs over 30 min; to `Cc1cnc(CNc2nc(-c3ccccc3Cl)nc3ccccc23)cn1`, 20 min; to `N#Cc1ccc(Nc2ncc(-c3cccc4ccccc34)o2)cc1`, over 30 min. Then `Cc1cc(C)nc(NC(=S)N2CCN(c3nccc(C(F)(F)F)n3)CC2)c1`, with 16 min. Then `Nc1ccccc1OCCn1c(CCNC(=O)C2CCCCC2)nc2ccccc21`, with 2.13 min. The compound `Cc1ccccc1Nc1c(-c2ccccc2O)nc2sccn12` came in with a half-life of 2.71 min.

`COc1ccc(-n2nc3c(N4CCCC(C(=O)NCCc5ccc(C)cc5)C4)nnc(C)c3c2C)cc1` (stereo unspecified) returned a half-life of 2.6 min.

Turning to `Cc1noc([C@@H]2CN(C(=O)c3nn(C)c4ccccc34)C[C@H]2CO)n1`, the half-life is over 30 min. On to `CCCCCNc1oc(-c2cccc3ccccc23)nc1C#N`, for which the half-life came to 2.1 min. To `Cc1ccc(-c2cc3c(nn2)-c2ccccc2C3=O)cc1` belongs 3.4 min.
